Results published in ChEMBL document CHEMBL5537119 (Eur J Med Chem, 2024).
Blank lines part the entries; values can stand above or below the compound they belong to. Active and inactive are the calls of the source. The rule behind the calls is not given here.

How the values were obtained:
CAL-27 [1] = test: Antiproliferative activity against human CAL-27 cells overexpressing HDAC4 assessed as inhibition of cell growth incubated for 72 hrs by MTT assay; assay type: functional, cell-based; details: CAL-27, 72 h
CAL-27 [2] = test: Antiproliferative activity against human CAL-27 cells without HDAC4 expression assessed as inhibition of cell growth incubated for 72 hrs by MTT assay; assay type: functional, cell-based; details: CAL-27, 72 h
[3] = Effect on p21 mRNA expression in human THP-1 cells assessed as fold increase in p21 mRNA expression at 7.9 uM incubated for 24 hrs by RT-PCR analysis; assay type: functional
THP-1 [4] = test: Effect on p21 protein expression in human THP-1 cells assessed as increase in p21 protein expression level at 7.9 uM incubated for 24 hrs by Western blot analysis; assay type: functional, cell-based
THP-1 [5] = test: cells; details: Homo sapiens, THP-1, 72 h
Description: Antiproliferative activity against human THP-1 cells assessed as inhibition of cell growth incubated for 72 hrs by MTT assay

[6] = Inhibition of Class IIa/8 HDAC in human THP-1 cells preincubated for 18 hrs followed by substrate addition and measured after 3 hrs by fluorescence based microplate reader assay; assay type: cell-based
Histone deacetylase 3 = Histone deacetylase 3 (Homo sapiens, UniProt O15379); test: Inhibition of HDAC3 (unknown origin)
Sequence of Histone deacetylase 3 (O15379 whole entry): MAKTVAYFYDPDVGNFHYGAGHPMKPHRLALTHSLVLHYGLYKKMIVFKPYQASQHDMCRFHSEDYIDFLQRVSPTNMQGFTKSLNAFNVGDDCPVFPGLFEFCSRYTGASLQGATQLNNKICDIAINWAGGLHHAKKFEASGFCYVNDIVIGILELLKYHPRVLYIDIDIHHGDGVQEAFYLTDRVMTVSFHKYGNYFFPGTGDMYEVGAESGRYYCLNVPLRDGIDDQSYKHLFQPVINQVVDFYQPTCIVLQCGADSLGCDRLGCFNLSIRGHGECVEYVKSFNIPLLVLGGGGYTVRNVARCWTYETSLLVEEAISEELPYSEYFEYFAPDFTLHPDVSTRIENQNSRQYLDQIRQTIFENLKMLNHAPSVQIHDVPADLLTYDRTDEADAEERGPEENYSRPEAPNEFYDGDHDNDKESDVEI

THP-1 [7] = test: Inhibition of Class I/IIb HDAC in human THP-1 cells at 100 uM preincubated for 18 hrs followed by substrate addition and measured after 3 hrs by fluorescence based microplate reader assay relative to control; assay type: cell-based; details: time 21.0 hrs
THP-1 [8] = test: Induction of apoptosis in human THP-1 cells assessed as caspase3/7 activation at 5 uM incubated for 48 hrs by Hoechst 33342 staining based assay; assay type: functional, cell-based
[9] = molecular target: T1, Protein deacetylase HDAC6 (Homo sapiens, UniProt Q9UBN7); test: Inhibition of human recombinant HDAC6 using Boc-Lys(Ac)-AMC as substrate preincubated for 5 mins followed by substrate addition and measured after 90 mins by fluorescence based microplate reader analysis
T1 sequence (Q9UBN7 whole entry): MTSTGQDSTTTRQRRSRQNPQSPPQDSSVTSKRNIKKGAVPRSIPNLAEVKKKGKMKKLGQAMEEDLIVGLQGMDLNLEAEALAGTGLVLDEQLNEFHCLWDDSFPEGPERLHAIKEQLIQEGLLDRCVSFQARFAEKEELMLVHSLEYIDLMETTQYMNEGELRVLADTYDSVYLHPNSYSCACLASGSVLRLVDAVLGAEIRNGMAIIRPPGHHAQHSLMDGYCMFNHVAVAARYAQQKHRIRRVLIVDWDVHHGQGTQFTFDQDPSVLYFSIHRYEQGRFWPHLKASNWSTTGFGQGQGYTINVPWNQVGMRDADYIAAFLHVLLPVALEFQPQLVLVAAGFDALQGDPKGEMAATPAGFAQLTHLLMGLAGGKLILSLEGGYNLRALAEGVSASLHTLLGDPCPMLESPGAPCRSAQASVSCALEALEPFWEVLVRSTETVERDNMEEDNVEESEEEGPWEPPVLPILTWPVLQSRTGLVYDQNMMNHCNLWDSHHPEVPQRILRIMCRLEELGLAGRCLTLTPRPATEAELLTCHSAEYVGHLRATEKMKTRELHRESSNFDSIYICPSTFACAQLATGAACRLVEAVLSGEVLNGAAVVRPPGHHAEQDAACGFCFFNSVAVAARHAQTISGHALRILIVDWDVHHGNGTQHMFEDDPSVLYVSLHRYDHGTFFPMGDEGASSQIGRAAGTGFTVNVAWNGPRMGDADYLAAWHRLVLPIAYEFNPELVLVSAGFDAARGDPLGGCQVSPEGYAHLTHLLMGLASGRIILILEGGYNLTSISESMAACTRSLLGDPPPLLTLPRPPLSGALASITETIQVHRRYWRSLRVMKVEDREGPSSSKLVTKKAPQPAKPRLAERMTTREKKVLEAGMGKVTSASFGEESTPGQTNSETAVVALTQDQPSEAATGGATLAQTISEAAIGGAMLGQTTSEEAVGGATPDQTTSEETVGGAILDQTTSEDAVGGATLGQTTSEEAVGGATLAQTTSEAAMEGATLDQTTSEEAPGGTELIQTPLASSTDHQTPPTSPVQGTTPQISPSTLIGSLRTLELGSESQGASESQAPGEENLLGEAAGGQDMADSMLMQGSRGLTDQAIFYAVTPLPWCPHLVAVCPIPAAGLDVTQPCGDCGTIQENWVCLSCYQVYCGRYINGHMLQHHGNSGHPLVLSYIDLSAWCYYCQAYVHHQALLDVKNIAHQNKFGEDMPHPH

Histone deacetylase 5 = Histone deacetylase 5 (Homo sapiens, UniProt Q9UQL6); test: Inhibition of HDAC5 (unknown origin)
Sequence of Histone deacetylase 5 (Q9UQL6 whole entry): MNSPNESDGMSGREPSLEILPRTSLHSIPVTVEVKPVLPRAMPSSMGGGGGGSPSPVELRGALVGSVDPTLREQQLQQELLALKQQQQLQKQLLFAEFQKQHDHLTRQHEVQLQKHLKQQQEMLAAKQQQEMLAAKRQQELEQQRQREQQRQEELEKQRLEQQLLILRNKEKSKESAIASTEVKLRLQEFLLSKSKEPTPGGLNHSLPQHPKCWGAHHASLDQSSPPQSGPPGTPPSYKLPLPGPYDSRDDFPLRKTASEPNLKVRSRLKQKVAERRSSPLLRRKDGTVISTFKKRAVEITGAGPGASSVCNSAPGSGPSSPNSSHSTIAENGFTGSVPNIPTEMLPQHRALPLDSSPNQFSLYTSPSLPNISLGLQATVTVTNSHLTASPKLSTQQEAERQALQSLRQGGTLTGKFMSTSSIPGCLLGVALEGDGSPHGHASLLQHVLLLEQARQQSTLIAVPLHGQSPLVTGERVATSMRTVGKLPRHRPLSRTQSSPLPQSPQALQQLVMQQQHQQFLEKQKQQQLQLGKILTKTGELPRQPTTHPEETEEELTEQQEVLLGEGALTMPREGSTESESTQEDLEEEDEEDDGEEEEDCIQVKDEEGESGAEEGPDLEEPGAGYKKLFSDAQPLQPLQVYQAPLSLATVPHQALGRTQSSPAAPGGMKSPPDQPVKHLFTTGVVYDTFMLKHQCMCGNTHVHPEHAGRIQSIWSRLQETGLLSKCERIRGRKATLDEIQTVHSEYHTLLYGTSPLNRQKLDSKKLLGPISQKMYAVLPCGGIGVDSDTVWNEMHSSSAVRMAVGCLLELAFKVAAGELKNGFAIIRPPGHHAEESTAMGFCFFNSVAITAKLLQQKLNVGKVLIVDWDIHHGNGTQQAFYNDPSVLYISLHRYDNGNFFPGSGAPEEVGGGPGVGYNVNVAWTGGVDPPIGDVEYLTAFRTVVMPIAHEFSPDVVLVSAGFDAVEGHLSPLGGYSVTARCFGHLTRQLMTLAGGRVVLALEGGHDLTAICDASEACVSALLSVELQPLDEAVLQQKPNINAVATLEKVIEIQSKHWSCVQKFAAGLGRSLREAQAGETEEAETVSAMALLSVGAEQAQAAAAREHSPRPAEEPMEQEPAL

Histone deacetylase 4 = Histone deacetylase 4 (Homo sapiens, UniProt P56524); test: Inhibition of GST-tagged HDAC4 (unknown origin)
Sequence of Histone deacetylase 4 (P56524 whole entry): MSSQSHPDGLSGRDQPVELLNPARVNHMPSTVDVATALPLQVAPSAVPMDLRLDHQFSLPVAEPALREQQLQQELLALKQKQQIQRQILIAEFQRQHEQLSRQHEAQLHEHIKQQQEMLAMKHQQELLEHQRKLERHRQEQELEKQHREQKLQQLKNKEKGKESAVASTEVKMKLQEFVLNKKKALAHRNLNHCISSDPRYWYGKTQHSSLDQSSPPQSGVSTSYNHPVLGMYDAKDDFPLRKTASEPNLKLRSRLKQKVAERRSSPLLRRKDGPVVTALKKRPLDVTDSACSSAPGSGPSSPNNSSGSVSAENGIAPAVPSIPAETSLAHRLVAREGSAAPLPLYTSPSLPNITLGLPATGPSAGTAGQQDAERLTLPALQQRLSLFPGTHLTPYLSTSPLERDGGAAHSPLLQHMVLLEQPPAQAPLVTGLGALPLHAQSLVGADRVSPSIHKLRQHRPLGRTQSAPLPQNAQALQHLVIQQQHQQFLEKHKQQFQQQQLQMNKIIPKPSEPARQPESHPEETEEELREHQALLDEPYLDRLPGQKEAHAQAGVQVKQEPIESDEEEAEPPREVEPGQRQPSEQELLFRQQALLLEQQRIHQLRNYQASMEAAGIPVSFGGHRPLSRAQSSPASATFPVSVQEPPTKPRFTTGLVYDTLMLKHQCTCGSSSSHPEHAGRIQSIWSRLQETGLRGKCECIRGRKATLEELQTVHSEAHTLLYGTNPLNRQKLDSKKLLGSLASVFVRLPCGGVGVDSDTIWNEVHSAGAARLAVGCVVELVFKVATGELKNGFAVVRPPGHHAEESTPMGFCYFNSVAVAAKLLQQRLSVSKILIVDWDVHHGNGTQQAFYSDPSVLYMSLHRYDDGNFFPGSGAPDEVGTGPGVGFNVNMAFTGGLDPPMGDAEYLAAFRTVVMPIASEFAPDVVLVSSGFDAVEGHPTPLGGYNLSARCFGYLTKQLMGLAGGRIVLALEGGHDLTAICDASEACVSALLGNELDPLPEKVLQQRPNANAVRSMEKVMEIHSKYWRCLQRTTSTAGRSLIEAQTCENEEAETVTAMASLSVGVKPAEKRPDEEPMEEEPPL

THP-1 [10] = test: Synergistic induction of apoptosis in human THP-1 cells assessed as increase in caspase3/7 activation at 5 uM incubated for 48 hrs in the presence of 7.9 nM bortezomib by Hoechst 33342 staining based assay; assay type: functional, cell-based
[11] = Inhibition of Class I/IIb HDAC in human THP-1 cells preincubated for 18 hrs followed by substrate addition and measured after 3 hrs by fluorescence based microplate reader assay; assay type: cell-based
CAL-27 [12] = test: Antitumor activity against human CAL-27 cells overexpressing HDAC4 implanted in chick embryo chorio allantoic membrane assessed as reduction in cell proliferation at 5 uM; assay type: functional, cell-based
THP-1 [13] = test: Effect on p21 protein expression in human THP-1 cells assessed as increase in p21 protein expression level at 5 uM incubated for 24 hrs by Western blot analysis; assay type: functional, cell-based
THP-1 [14] = test: Induction of apoptosis in human THP-1 cells assessed as subG1 population at 5 uM incubated for 48 hrs by Propidium iodide staining based flow cytometric analysis; assay type: functional, cell-based
THP-1 [15] = test: Inhibition of Class IIa/8 HDAC in human THP-1 cells at 100 uM preincubated for 18 hrs followed by substrate addition and measured after 3 hrs by fluorescence based microplate reader assay relative to control; assay type: cell-based; details: time 21.0 hrs, values are per cent of control
Histone deacetylase 8 = molecular target: T2, Histone deacetylase 8 (Homo sapiens, UniProt Q9BY41); test: Inhibition of human recombinant HDAC8 using Boc-Lys-(Tfa)-AMC as substrate preincubated for 5 mins followed by substrate addition and measured after 90 mins by fluorescence based microplate reader analysis
T2 sequence (Q9BY41 whole entry): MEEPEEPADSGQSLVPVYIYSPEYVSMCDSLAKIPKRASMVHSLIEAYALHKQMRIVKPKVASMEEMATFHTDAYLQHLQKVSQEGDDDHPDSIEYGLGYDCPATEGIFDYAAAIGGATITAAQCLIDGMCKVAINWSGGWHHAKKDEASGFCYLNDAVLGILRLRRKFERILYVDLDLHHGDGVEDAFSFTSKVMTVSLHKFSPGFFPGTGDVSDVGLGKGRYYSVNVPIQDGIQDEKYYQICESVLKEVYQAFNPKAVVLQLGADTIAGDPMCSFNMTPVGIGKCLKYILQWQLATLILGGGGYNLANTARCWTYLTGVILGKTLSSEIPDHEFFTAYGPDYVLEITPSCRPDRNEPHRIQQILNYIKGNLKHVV

THP-1 [16] = test: Synergistic effect on p21 protein expression in human THP-1 cells assessed as increase in p21 protein expression level at 5 uM incubated for 24 hrs in the presence of 7.9 nM bortezomib by Western blot analysis; assay type: functional, cell-based
CAL-27 [17] = test: Antitumor activity against human CAL-27 cells without HDAC4 expression xenografted in chick embryo chorio allantoic membrane assessed as reduction in cell proliferation at 5 uM; assay type: functional, cell-based
THP-1 [18] = test: Antiproliferative activity against human THP-1 cells assessed as reduction in cell viability at 100 uM incubated for 72 hrs by MTT assay relative to control; assay type: functional
Histone deacetylase 2 = Histone deacetylase 2 (Homo sapiens, UniProt Q92769); test: Inhibition of human recombinant HDAC2 using Boc-Lys(Ac)-AMC as substrate preincubated for 5 mins followed by substrate addition and measured after 90 mins by fluorescence based microplate reader analysis
Sequence of Histone deacetylase 2 (Q92769 whole entry): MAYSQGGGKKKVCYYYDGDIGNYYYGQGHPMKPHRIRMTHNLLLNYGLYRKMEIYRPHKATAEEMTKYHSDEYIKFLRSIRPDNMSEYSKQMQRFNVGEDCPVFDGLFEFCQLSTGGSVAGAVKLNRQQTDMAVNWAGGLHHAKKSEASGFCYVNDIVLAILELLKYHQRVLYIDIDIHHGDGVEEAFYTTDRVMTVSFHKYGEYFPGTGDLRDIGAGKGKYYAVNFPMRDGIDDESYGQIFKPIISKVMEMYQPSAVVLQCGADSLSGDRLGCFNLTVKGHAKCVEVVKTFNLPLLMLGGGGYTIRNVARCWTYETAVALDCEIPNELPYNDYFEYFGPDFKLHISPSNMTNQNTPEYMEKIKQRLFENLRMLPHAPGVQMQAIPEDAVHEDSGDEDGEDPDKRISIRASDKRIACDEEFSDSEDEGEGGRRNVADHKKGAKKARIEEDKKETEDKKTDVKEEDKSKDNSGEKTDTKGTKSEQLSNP

Histone deacetylase 11 = molecular target: T3, Histone deacetylase 11 (Homo sapiens, UniProt Q96DB2); test: Inhibition of HDAC11 (unknown origin)
T3 sequence (Q96DB2 whole entry): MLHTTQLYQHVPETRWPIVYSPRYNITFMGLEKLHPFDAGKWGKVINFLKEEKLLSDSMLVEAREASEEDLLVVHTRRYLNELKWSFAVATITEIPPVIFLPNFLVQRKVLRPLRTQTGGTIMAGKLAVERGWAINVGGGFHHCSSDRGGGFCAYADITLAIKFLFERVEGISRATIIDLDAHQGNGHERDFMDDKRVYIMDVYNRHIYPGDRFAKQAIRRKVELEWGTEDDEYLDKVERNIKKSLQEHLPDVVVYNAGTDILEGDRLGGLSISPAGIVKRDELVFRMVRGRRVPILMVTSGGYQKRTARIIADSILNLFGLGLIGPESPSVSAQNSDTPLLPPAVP

THP-1 [19] = test: Synergistic induction of apoptosis in human THP-1 cells assessed as increase in subG1 population at 5 uM incubated for 48 hrs in the presence of 7.9 nM bortezomib by Propidium iodide staining based flow cytometric analysis; assay type: functional, cell-based

IC50 (THP-1 [5]): 0.00628 µM
SMILES: CC(C)C[C@H](NC(=O)[C@H](Cc1ccccc1)NC(=O)c1cnccn1)B(O)O [BORTEZOMIB]
IC50 (CAL-27 [1]): 4.73 µM | IC50 (CAL-27 [2]): 7.6 µM | fold change (FC) [3]: 2.5 | Activity (THP-1 [4]): Active

IC50 [6]: 0.077 µM | IC50 (Histone deacetylase 3): 3.82 µM | IC50 [9]: 5.79 µM | IC50 (Histone deacetylase 5): 0.019 µM | IC50 (Histone deacetylase 4): 0.017 µM | IC50 [11]: 10.9 µM | IC50 (Histone deacetylase 8): 4.26 µM | IC50 (Histone deacetylase 2): 6.13 µM | IC50 (Histone deacetylase 11): 66 µM | IC50 (THP-1 [5]): 9.24 µM
SMILES: CCN(CC)CCNC(=O)c1ccc(-c2noc(C(F)(F)F)n2)cc1
inhibition (THP-1 [7]): 93% | Activity (THP-1 [8]): inactive | IC50 (CAL-27 [1]): 8.63 µM | IC50 (CAL-27 [2]): 22.5 µM | Activity (THP-1 [10]): Active | Activity (CAL-27 [12]): Active | Activity (THP-1 [13]): Active | Activity (THP-1 [14]): inactive | residual activity (THP-1 [15]): 100% | Activity (THP-1 [16]): Active | Activity (CAL-27 [17]): Active | Activity (THP-1 [18]): 80% | Activity (THP-1 [19]): Active
